# Results as given in US8383637B2, “2-amino-quinazoline derivatives useful as inhibitors of β-secretase (BACE)” (Jansssen Pharmaceutica N.V., priority 2004, dated 2013).
# Experiments:
# Assay type in all cases: biochemical
# β-secretase(BACE) [1] = target: T1, β-secretase(BACE) (Homo sapiens, UniProt P56817); assay: BACE % Inhibition Assay ((Aedens)-[…]-(Dabcyl K-amide) substrate)
# T1 construct: purchased Panvera
# Protocol: The substrate stock solution was prepared in DMSO as a 10 mg/mL solution. The substrate working solution was prepared by diluting the 10 mg/mL stock solution with substrate assay buffer to a final concentration of 300 μg/mL. The β-secretase (BACE) working solution was prepared by diluting a 0.83 mg/mL BACE stock solution with enzyme assay buffer to a final concentration of 4 μg/mL.
# Test compounds were dissolved in DMSO to 10 mM.
# The screening procedure for this assay was as follows: 15 μL of BACE working solution was pipetted into each well of a 96-well plate. To each well was then pipetted 2 μL of test compound at the selected concentration. Test compound and BACE were then mixed with a pipettor and incubated for 20 min at room temperature. To each well was then added 10 μL of the substrate working solution. The plates were then incubated for 1 hour at room temperature.
# The procedure for the blank was as follows. 15 μL of assay buffer was pipetted into each well to be used as a blank control. To each well was then added 2 μL of vehicle and 10 μL of substrate working solution. The plates were then incubated for 1 hour at room temperature.
# The procedure for the positive control was as follows: 15 μl of BACE working solution was pipetted into each well to be used as a positive control. To each well was then pipetted 2 μL of vehicle. Vehicle and BACE were then mixed with a pipettor and incubated for 20 min at room temperature. To each well was then added 10 μL of the substrate working solution. The plates were then incubated for 1 hour at room temperature.
# For test compounds, % inhibition was determined at each concentration as follows: […]
# β-secretase(BACE) [2] = target: T1, β-secretase(BACE); assay: BACE FS1% Inhibition Assay; conditions: FS1 substrate; for inhibition at 0.3 µM: read-out: % Inhibition (FS) 0.3 μM; for inhibition at 1 µM: read-out: % Inhibition (FS) 1 μM
# Summary of the method: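 Human BACE (4 μg/mL working solution) preincubated 20 min at room temperature with compound, then FS1 substrate (300 μg/mL working solution) added and incubated 1 h at room temperature. Percent inhibition calculated at each compound concentration against blank and vehicle controls.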
# β-secretase(BACE) [3] = target: T1, β-secretase(BACE); assay: BACE Assay-1 (MCA-substrate, IC50); conditions: procedure of Example 158; read-out: IC50 μM (158)
# Summary of the method: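 Human BACE (work solution 10 μg/mL) with MCA-peptide substrate (stock 2.0 mg/mL) in 0.05 M citrate buffer, pH 5.0, with PEG8000. Fluorescence read at T0 and T60; compounds tested at multiple concentrations and IC50 calculated from these readings.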
# β-secretase(BACE) [4] = target: T1, β-secretase(BACE); assay: BACE Assay-2 (FS1 substrate, IC50 and Ki); conditions: procedure of Example 159, FS1 substrate; for Ki: read-out: Ki μM (159)
# [5] = 3 μM test compound, % error ±10%
# [6] = 10 μM test compound, % error ±10%
# [7] = 0.3 μM test compound, % error ±10%
# [8] = 1 μM test compound, % error ±10%
# [9] = 3 μM test compound, read-out: % Inhibition (FS) 3 μM
# T1 sequence (P56817 46-501): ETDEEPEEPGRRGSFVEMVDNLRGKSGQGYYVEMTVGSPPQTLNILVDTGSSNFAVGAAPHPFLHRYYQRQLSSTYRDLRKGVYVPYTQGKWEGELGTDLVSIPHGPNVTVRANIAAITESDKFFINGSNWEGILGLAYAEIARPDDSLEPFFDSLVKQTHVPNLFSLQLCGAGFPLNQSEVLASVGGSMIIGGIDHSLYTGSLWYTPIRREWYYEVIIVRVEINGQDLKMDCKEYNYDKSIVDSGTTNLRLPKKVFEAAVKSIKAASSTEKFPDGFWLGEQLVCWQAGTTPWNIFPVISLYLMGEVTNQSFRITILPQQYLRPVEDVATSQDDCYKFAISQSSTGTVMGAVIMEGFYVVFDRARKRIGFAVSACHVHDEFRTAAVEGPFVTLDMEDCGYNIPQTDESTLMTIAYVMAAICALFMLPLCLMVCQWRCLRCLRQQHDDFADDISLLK
Compound,% Inhibition (β-secretase(BACE) [1]; [5]),% Inhibition (β-secretase(BACE) [1]; [6]),IC50 (β-secretase(BACE) [3]),Ki (β-secretase(BACE) [4]),also measured
CCCN1Cc2cc(Oc3cccc(NC(=O)C4CCCCC4)c3)ccc2N=C1N [Compound 44],<30%,31%,,,
CCCN1Cc2cc(Oc3cccc(N(C#N)CC4CCCCC4)c3)ccc2N=C1N [Compound 56],35%,79%,,,
"CN(C(=O)c1cccc(CN2Cc3cc(Oc4ccccc4)ccc3N=C2N)c1)C1CCCCC1 [Compound 62, 3-(2-Amino-6-phenoxy-4H-quinazolin-3-ylmethyl)-N-cyclohexyl-N-methyl-benzamide]",,,,,inhibition at 3 µM (β-secretase(BACE) [1]): 62%; inhibition at 10 µM (β-secretase(BACE) [1]): 82%; % Inhibition (β-secretase(BACE) [1]; 3 µM): 73%; % Inhibition (β-secretase(BACE) [1]; 10 µM): 82%
CCOC(=O)CCN1Cc2cc(Oc3ccccc3)ccc2N=C1N [Compound 65],<30%,<30%,,,
CN(C(=O)[C@@H]1CCC[C@@H]1N1Cc2cc(Oc3ccccc3)ccc2N=C1N)C1CCCCC1 [Compound 72],<30%,<30%,,,
CN(C(=O)[C@@H]1CC[C@H](N2Cc3cc(Oc4ccccc4)ccc3N=C2N)C1)C1CCCCC1 [Compound 77],<30%,<30%,,,
CCN(CC)CCN1Cc2cc(Oc3ccccc3)ccc2N=C1N [Compound 79],<30%,<30%,,,
CN(C(=O)[C@H]1CCCC[C@H]1N1Cc2cc(Oc3ccccc3)ccc2N=C1N)C1CCCCC1 [Compound 81],<30%,<30%,,,
CCCC(CCC(=O)N(C)C1CCCCC1)N1Cc2cc(Oc3ccccc3)ccc2N=C1N (centres unmarked) [Compound 86],72%,80%,,,
CN(C(=O)[C@@H]1CCCC[C@@H]1N1Cc2cc(Oc3ccccc3)ccc2N=C1N)C1CCCCC1 [Compound 87],<30%,<30%,,,
CN(C(=O)[C@@H]1CCCN1C(=O)CN1Cc2cc(Oc3ccccc3)ccc2N=C1N)C1CCCCC1 [Compound 88],<30%,<30%,,,
CC(C)(C)OC(=O)N1CCC(N2Cc3cc(Oc4ccccc4)ccc3N=C2N)C1 (centres unmarked) [Compound 93],<30%,<30%,,,
CN(C(=O)c1cccc(N2Cc3cc(Oc4ccccc4)ccc3N=C2N)c1)C1CCCCC1 [Compound 94],<30%,<30%,,,
CN(C(=O)c1ccc(CN2Cc3cc(Oc4ccccc4)ccc3N=C2N)cc1)C1CCCCC1 [Compound 97],<30%,53%,,,
CN(C(=O)C1CCC(CN2Cc3cc(Oc4ccccc4)ccc3N=C2N)CC1)C1CCCCC1 (centres unmarked) [Compound 100],<30%,<30%,,,
Cc1ccc(S(=O)(=O)NCCN2Cc3cc(Oc4ccccc4)ccc3N=C2N)cc1 [Compound 109],<30%,58%,,,
CC(C)(C)C(=O)NCC(C1CCCCC1)N1Cc2cc(Oc3ccccc3)ccc2N=C1N (centres unmarked) [Compound 317],107%,,,,% Inhibition (β-secretase(BACE) [1]; [7]): <30%; % Inhibition (β-secretase(BACE) [1]; [8]): 66%
CCOc1ccccc1-c1ccc2c(c1)CN(Cc1cccc(C(=O)N(C)C3CCCCC3)c1)C(N)=N2 [Compound 329],,,0.012 µM,0.02 µM,inhibition at 0.3 µM (β-secretase(BACE) [2]; 0.3 μM test compound): 92%; inhibition at 1 µM (β-secretase(BACE) [2]; 1 μM test compound): 109%; inhibition at 3 µM (β-secretase(BACE) [2]; [9]): 118%

Compound,% Inhibition (β-secretase(BACE) [1]; [5]),% Inhibition (β-secretase(BACE) [1]; [6]),IC50 (β-secretase(BACE) [3]),Ki (β-secretase(BACE) [4]),also measured
CN(C(=O)c1cccc(CN2Cc3cc(-c4cccc5ccccc45)ccc3N=C2N)c1)C1CCCCC1 [Compound 330],,,0.048 µM,0.21 µM,inhibition at 0.3 µM (β-secretase(BACE) [2]; 0.3 μM test compound): < 30%; inhibition at 1 µM (β-secretase(BACE) [2]; 1 μM test compound): 66%; inhibition at 3 µM (β-secretase(BACE) [2]; [9]): 114%
CN(C(=O)c1cccc(CN2Cc3cc(-c4ccccc4Br)ccc3N=C2N)c1)C1CCCCC1 [Compound 331],,,0.089 µM,0.19 µM,inhibition at 0.3 µM (β-secretase(BACE) [2]; 0.3 μM test compound): < 30%; inhibition at 1 µM (β-secretase(BACE) [2]; 1 μM test compound): 60%; inhibition at 3 µM (β-secretase(BACE) [2]; [9]): 108%
NC1=Nc2ccc(Oc3ccccc3)cc2CN1Cc1cccc(CNC(=O)C23CC4CC(CC(C4)C2)C3)c1 [Compound 336],<30%,,,,% Inhibition (β-secretase(BACE) [1]; [7]): <30%; % Inhibition (β-secretase(BACE) [1]; [8]): <30%
NC1=Nc2ccc(Oc3ccccc3)cc2CN1Cc1cccc(CNC(=O)C(c2ccccc2)c2ccccc2)c1 [Compound 337],<30%,,,,% Inhibition (β-secretase(BACE) [1]; [7]): <30%; % Inhibition (β-secretase(BACE) [1]; [8]): <30%
CCCC(CCC)C(=O)NCc1cccc(CN2Cc3cc(Oc4ccccc4)ccc3N=C2N)c1 [Compound 338],<30%,,,,% Inhibition (β-secretase(BACE) [1]; [7]): <30%; % Inhibition (β-secretase(BACE) [1]; [8]): <30%
CCCCC(CC)C(=O)NCc1cccc(CN2Cc3cc(Oc4ccccc4)ccc3N=C2N)c1 (centres unmarked) [Compound 339],<30%,,,,% Inhibition (β-secretase(BACE) [1]; [7]): <30%; % Inhibition (β-secretase(BACE) [1]; [8]): <30%
CCCCC(CC)C(=O)NCC(c1ccccc1)N1Cc2cc(Oc3ccccc3)ccc2N=C1N (centres unmarked) [Compound 341],72%,,,,% Inhibition (β-secretase(BACE) [1]; [7]): <30%; % Inhibition (β-secretase(BACE) [1]; [8]): <30%
CC(C)CCC(=O)NCC(C1CCCCC1)N1Cc2cc(Oc3ccccc3)ccc2N=C1N (centres unmarked) [Compound 388],119%,,,,% Inhibition (β-secretase(BACE) [1]; [7]): 107%; % Inhibition (β-secretase(BACE) [1]; [8]): 119%
NC1=Nc2ccc(Oc3ccccc3)cc2CN1C(CNC(=O)C1(c2ccc(Cl)cc2)CCCC1)C1CCCCC1 (centres unmarked) [Compound 390],102%,,,,% Inhibition (β-secretase(BACE) [1]; [7]): <30%; % Inhibition (β-secretase(BACE) [1]; [8]): 50%
"CN(CCN1Cc2cc(Oc3ccccc3)ccc2N=C1N)C(=O)OC(C)(C)C [Compound 425, [2-(2-Amino-6-phenoxy-4H-quinazolin-3-yl)-ethyl]-methyl-carbamic acid tert-butyl ester]",,,0.14 µM,0.074 µM,inhibition at 0.3 µM (β-secretase(BACE) [2]; 0.3 μM test compound): 46%; inhibition at 1 µM (β-secretase(BACE) [2]; 1 μM test compound): 85%; inhibition at 3 µM (β-secretase(BACE) [2]; [9]): 111%
CC(C)[C@H](CCC(=O)N(C)C1CCCCC1)N1Cc2cc(Oc3ccccc3)ccc2N=C1N [Compound 450],,,0.011 µM,0.019 µM,inhibition at 0.3 µM (β-secretase(BACE) [2]; 0.3 μM test compound): 97%; inhibition at 1 µM (β-secretase(BACE) [2]; 1 μM test compound): 112%; inhibition at 3 µM (β-secretase(BACE) [2]; [9]): 121%
CN(C(=O)c1cccc(CN2Cc3cc(Sc4ccccc4)ccc3N=C2N)c1)C1CCCCC1 [Compound 476],,,0.067 µM,0.28 µM,inhibition at 0.3 µM (β-secretase(BACE) [2]; 0.3 μM test compound): 19.9%; inhibition at 1 µM (β-secretase(BACE) [2]; 1 μM test compound): 66%; inhibition at 3 µM (β-secretase(BACE) [2]; [9]): 102%
"NC1=Nc2ccc(Oc3ccccc3)cc2CN1[C@@H](CNC(=O)C1CCCCC1)C1CCCCC1 [Compound 485, Cyclohexanecarboxylic acid [2-(2-amino-6-phenoxy-4H-quinazolin-3-yl)-2-(R)-cyclohexyl-ethyl]-amide]",,,0.012 µM,0.017 µM,inhibition at 0.3 µM (β-secretase(BACE) [2]; 0.3 μM test compound): 100%; inhibition at 1 µM (β-secretase(BACE) [2]; 1 μM test compound): 112%; inhibition at 3 µM (β-secretase(BACE) [2]; [9]): 123%
COc1ccccc1-c1ccc2c(c1)CN(CCNC(=O)C1CCCCC1)C(N)=N2 [Compound 487],,,0.36 µM,0.26 µM,"% Inhibition (FS) 0.3 μM (β-secretase(BACE) [2]; 0.3 μM test compound, 0.3 µM): <30%; inhibition at 0.3 µM (β-secretase(BACE) [2]; 0.3 μM test compound): 38%; % Inhibition (FS) 1 μM (β-secretase(BACE) [2]; 1 μM test compound, 1 µM): 32%; inhibition at 1 µM (β-secretase(BACE) [2]; 1 μM test compound): 44%; % Inhibition (FS) 3 μM (β-secretase(BACE) [2]; 3 μM test compound, 3 µM): 95%; inhibition at 3 µM (β-secretase(BACE) [2]; [9]): 93%"
"C[C@H](CNC(=O)C1CCCCC1)N1Cc2cc(Oc3ccccc3)ccc2N=C1N [Compound 495, (R)-Enantiomer of cyclohexanecarboxylic acid [2-(2-amino-6-phenoxy-4H-quinazolin-3-yl)-propyl]-amide]",,,0.25 µM,0.1 µM,inhibition at 0.3 µM (β-secretase(BACE) [2]; 0.3 μM test compound): < 30%; inhibition at 1 µM (β-secretase(BACE) [2]; 1 μM test compound): 75%; inhibition at 3 µM (β-secretase(BACE) [2]; [9]): 106%
CC(C)CCC(=O)NC[C@@H](C(C)C)N1Cc2cc(Oc3ccccc3)ccc2N=C1N [Compound 564],,,0.018 µM,0.011 µM,inhibition at 0.3 µM (β-secretase(BACE) [2]; 0.3 μM test compound): 112%; inhibition at 1 µM (β-secretase(BACE) [2]; 1 μM test compound): 119%; inhibition at 3 µM (β-secretase(BACE) [2]; [9]): 129%
CCCN1Cc2cc(Oc3cccc(NC(=O)CCCC(=O)N(C)C4CCCCC4)c3)ccc2N=C1N [Compound 755],,,0.21 µM,0.27 µM,"inhibition at 3 µM (β-secretase(BACE) [2]; 3 μM test compound, read-out: % Inhibition (FS)): 59%; inhibition at 10 µM (β-secretase(BACE) [2]; 10 μM test compound, read-out: % Inhibition (FS)): 79%; IC50 (β-secretase(BACE) [4]): 1.9 µM"
